In US20170360791A1, “PHARMACEUTICAL COMPOSITIONS FOR INCREASING THE BIOAVAILABILITY OF POORLY SOLUBLE DRUGS” (ASTEX PHARMACEUTICALS, INC., priority 2014, published 2017):
Converted amounts (≈) assume the structure as drawn. Where two headings read alike, the source gives them in different places.

Assays:
[1] = MP470FB content in the supernatant of Soluplus/SIF mixtures at various time-points; type: physicochemical; design: MP470FB content in the supernatant: unit not given here; settings: 37° C.
[2] = type: physicochemical; settings: room temperature, >24 hours
Protocol: The suspensions were filtered through 0.2 or 0.45 microm filters prior to HPLC analysis. Some filtrates were diluted with MeOH prior to the HPLC analysis.

With `S=C(NCc1ccc2c(c1)OCO2)N1CCN(c2ncnc3c2oc2ccccc23)CC1` [MP470 FB, amuvatinib] the “MP470FB content in the supernatant” value ([1]; 0.2% Soluplus/SIF, MP470FB 0.2 mg/mL, 30 min) was 0.082, the “MP470FB content in the supernatant” value ([1]; 0.2% Soluplus/SIF, MP470FB 0.2 mg/mL, 2 hr) was 0.084 and the “MP470FB content in the supernatant” value ([1]; 0.2% Soluplus/SIF, MP470FB 0.2 mg/mL, 4 hr) was 0.089. For the same compound, the “MP470FB content in the supernatant” value ([1]; 0.2% Soluplus/SIF, MP470FB 0.2 mg/mL, 6 hr) was 0.087, the “MP470FB content in the supernatant” value ([1]; 0.2% Soluplus/SIF, MP470FB 0.2 mg/mL, 24 hr) was 0.107 and the “MP470FB content in the supernatant” value ([1]; 0.2% Soluplus/SIF, MP470FB 0.6 mg/mL, 30 min) was 0.126. The “MP470FB content in the supernatant” value ([1]; 0.2% Soluplus/SIF, MP470FB 0.6 mg/mL, 2 hr) was 0.136, the “MP470FB content in the supernatant” value ([1]; 0.2% Soluplus/SIF, MP470FB 0.6 mg/mL, 4 hr) was 0.152 and the “MP470FB content in the supernatant” value ([1]; 0.2% Soluplus/SIF, MP470FB 0.6 mg/mL, 6 hr) was 0.154. The “MP470FB content in the supernatant” value ([1]; 0.2% Soluplus/SIF, MP470FB 0.6 mg/mL, 24 hr) was 0.178, the “MP470FB content in the supernatant” value ([1]; 0.5% Soluplus/SIF, MP470FB 0.2 mg/mL, 30 min) was 0.092 and the “MP470FB content in the supernatant” value ([1]; 0.5% Soluplus/SIF, MP470FB 0.2 mg/mL, 2 hr) was 0.097. The “MP470FB content in the supernatant” value ([1]; 0.5% Soluplus/SIF, MP470FB 0.2 mg/mL, 4 hr) was 0.103, the “MP470FB content in the supernatant” value ([1]; 0.5% Soluplus/SIF, MP470FB 0.2 mg/mL, 6 hr) was 0.107 and the “MP470FB content in the supernatant” value ([1]; 0.5% Soluplus/SIF, MP470FB 0.2 mg/mL, 24 hr) was 0.127. The “MP470FB content in the supernatant” value ([1]; 0.5% Soluplus/SIF, MP470FB 0.6 mg/mL, 30 min) was 0.155, the “MP470FB content in the supernatant” value ([1]; 0.5% Soluplus/SIF, MP470FB 0.6 mg/mL, 2 hr) was 0.190 and the “MP470FB content in the supernatant” value ([1]; 0.5% Soluplus/SIF, MP470FB 0.6 mg/mL, 4 hr) was 0.228. The “MP470FB content in the supernatant” value ([1]; 0.5% Soluplus/SIF, MP470FB 0.6 mg/mL, 6 hr) was 0.235, the “MP470FB content in the supernatant” value ([1]; 0.5% Soluplus/SIF, MP470FB 0.6 mg/mL, 24 hr) was 0.315 and the “MP470FB content in the supernatant” value ([1]; 1.0% Soluplus/SIF, MP470FB 0.2 mg/mL, 30 min) was 0.096. For the same compound, the “MP470FB content in the supernatant” value ([1]; 1.0% Soluplus/SIF, MP470FB 0.2 mg/mL, 2 hr) was 0.104, the “MP470FB content in the supernatant” value ([1]; 1.0% Soluplus/SIF, MP470FB 0.2 mg/mL, 4 hr) was 0.115 and the “MP470FB content in the supernatant” value ([1]; 1.0% Soluplus/SIF, MP470FB 0.2 mg/mL, 6 hr) was 0.118. For the same compound, the “MP470FB content in the supernatant” value ([1]; 1.0% Soluplus/SIF, MP470FB 0.2 mg/mL, 24 hr) was 0.135, the “MP470FB content in the supernatant” value ([1]; 1.0% Soluplus/SIF, MP470FB 0.6 mg/mL, 30 min) was 0.179 and the “MP470FB content in the supernatant” value ([1]; 1.0% Soluplus/SIF, MP470FB 0.6 mg/mL, 2 hr) was 0.223. For the same compound, the “MP470FB content in the supernatant” value ([1]; 1.0% Soluplus/SIF, MP470FB 0.6 mg/mL, 4 hr) was 0.277, the “MP470FB content in the supernatant” value ([1]; 1.0% Soluplus/SIF, MP470FB 0.6 mg/mL, 6 hr) was 0.318 and the “MP470FB content in the supernatant” value ([1]; 1.0% Soluplus/SIF, MP470FB 0.6 mg/mL, 24 hr) was 0.428. The “MP470FB content in the supernatant” value ([1]; 2.0% Soluplus/SIF, MP470FB 0.2 mg/mL, 30 min) was 0.101, the “MP470FB content in the supernatant” value ([1]; 2.0% Soluplus/SIF, MP470FB 0.2 mg/mL, 2 hr) was 0.110 and the “MP470FB content in the supernatant” value ([1]; 2.0% Soluplus/SIF, MP470FB 0.2 mg/mL, 4 hr) was 0.126. For the same compound, the “MP470FB content in the supernatant” value ([1]; 2.0% Soluplus/SIF, MP470FB 0.2 mg/mL, 6 hr) was 0.138, the “MP470FB content in the supernatant” value ([1]; 2.0% Soluplus/SIF, MP470FB 0.2 mg/mL, 24 hr) was 0.170 and the “MP470FB content in the supernatant” value ([1]; 2.0% Soluplus/SIF, MP470FB 0.6 mg/mL, 30 min) was 0.206. For the same compound, the “MP470FB content in the supernatant” value ([1]; 2.0% Soluplus/SIF, MP470FB 0.6 mg/mL, 2 hr) was 0.290, the “MP470FB content in the supernatant” value ([1]; 2.0% Soluplus/SIF, MP470FB 0.6 mg/mL, 4 hr) was 0.368 and the “MP470FB content in the supernatant” value ([1]; 2.0% Soluplus/SIF, MP470FB 0.6 mg/mL, 6 hr) was 0.409. For the same compound, the “MP470FB content in the supernatant” value ([1]; 2.0% Soluplus/SIF, MP470FB 0.6 mg/mL, 24 hr) was 0.469, the “MP470FB content in the supernatant” value ([1]; 5.0% Soluplus/SIF, MP470FB 0.2 mg/mL, 30 min) was 0.114 and the “MP470FB content in the supernatant” value ([1]; 5.0% Soluplus/SIF, MP470FB 0.2 mg/mL, 2 hr) was 0.124. The “MP470FB content in the supernatant” value ([1]; 5.0% Soluplus/SIF, MP470FB 0.2 mg/mL, 4 hr) was 0.129, the “MP470FB content in the supernatant” value ([1]; 5.0% Soluplus/SIF, MP470FB 0.2 mg/mL, 6 hr) was 0.137 and the “MP470FB content in the supernatant” value ([1]; 5.0% Soluplus/SIF, MP470FB 0.2 mg/mL, 24 hr) was 0.144. For the same compound, the “MP470FB content in the supernatant” value ([1]; 5.0% Soluplus/SIF, MP470FB 0.6 mg/mL, 30 min) was 0.244, the “MP470FB content in the supernatant” value ([1]; 5.0% Soluplus/SIF, MP470FB 0.6 mg/mL, 2 hr) was 0.342 and the “MP470FB content in the supernatant” value ([1]; 5.0% Soluplus/SIF, MP470FB 0.6 mg/mL, 4 hr) was 0.374. For the same compound, the “MP470FB content in the supernatant” value ([1]; 5.0% Soluplus/SIF, MP470FB 0.6 mg/mL, 6 hr) was 0.411, the “MP470FB content in the supernatant” value ([1]; 5.0% Soluplus/SIF, MP470FB 0.6 mg/mL, 24 hr) was 0.467 and the “MP470FB content in the supernatant” value ([1]; Control (SIF), MP470FB 0.2 mg/mL, 30 min) was 0.002. For the same compound, the “MP470FB content in the supernatant” value ([1]; Control (SIF), MP470FB 0.2 mg/mL, 2 hr) was 0, the “MP470FB content in the supernatant” value ([1]; Control (SIF), MP470FB 0.2 mg/mL, 4 hr) was 0 and the “MP470FB content in the supernatant” value ([1]; Control (SIF), MP470FB 0.2 mg/mL, 6 hr) was 0. The “MP470FB content in the supernatant” value ([1]; Control (SIF), MP470FB 0.2 mg/mL, 24 hr) was 0, the “MP470FB content in the supernatant” value ([1]; Control (SIF), MP470FB 0.6 mg/mL, 30 min) was 0.002 and the “MP470FB content in the supernatant” value ([1]; Control (SIF), MP470FB 0.6 mg/mL, 2 hr) was 0. For the same compound, the “MP470FB content in the supernatant” value ([1]; Control (SIF), MP470FB 0.6 mg/mL, 4 hr) was 0, the “MP470FB content in the supernatant” value ([1]; Control (SIF), MP470FB 0.6 mg/mL, 6 hr) was 0 and the “MP470FB content in the supernatant” value ([1]; Control (SIF), MP470FB 0.6 mg/mL, 24 hr) was 0. For the same compound, the “time MP470 is kept stable in solution by interaction with Soluplus” value ([1]; Soluplus/SIF) was “at least 24 hours”, the solubility ([2]; TPGS, aqueous with cosolvent or surfactant or cyclodextrin, thermodynamic from solid, solvent TPGS, read-out: Solubility) was 10 mg/mL (≈ 22.3 mM) and the solubility ([2]; Tween 80, aqueous with cosolvent or surfactant or cyclodextrin, thermodynamic from solid, solvent Tween 80, read-out: Solubility) was 6.6 mg/mL (≈ 14.7 mM). It also gave a solubility ([2]; acetic acid, organic solvent or mixture, thermodynamic from solid, solvent Acetic acid, read-out: Solubility) of 2.9 mg/mL (≈ 6.48 mM), a solubility ([2]; anisole, organic solvent or mixture, thermodynamic from solid, solvent Anisole, read-out: Solubility) of 1.8 mg/mL (≈ 4.02 mM) and a solubility ([2]; ethanol, organic solvent or mixture, thermodynamic from solid, solvent Ethanol, read-out: Solubility) of 0.3 mg/mL (≈ 0.67 mM). The solubility ([2]; ethyl cinnamate, organic solvent or mixture, thermodynamic from solid, solvent Ethyl cinnamate, read-out: Solubility) was 3.9 mg/mL (≈ 8.71 mM), the solubility ([2]; linoleic acid, oil or lipid, thermodynamic from solid, solvent Linoleic acid, read-out: Solubility) was 0.02 mg/mL (≈ 0.0447 mM) and the solubility ([2]; oleic acid, oil or lipid, thermodynamic from solid, solvent Oleic acid, read-out: Solubility) was 0.1 mg/mL (≈ 0.223 mM). It also gave a solubility ([2]; propylene carbonate, organic solvent or mixture, thermodynamic from solid, solvent Propylene carbonate, read-out: Solubility) of 2.9 mg/mL (≈ 6.48 mM), a solubility ([2]; solvent Acetone) of 2.6 mg/mL (≈ 5.81 mM) and a solubility ([2]; solvent Benzyl alcohol) of 63 mg/mL (≈ 141 mM). The solubility ([2]; solvent DMA) was over 240 mg/mL, the solubility ([2]; solvent DMA, listed as MP470 free base) was over 240 mg/mL and the solubility ([2]; solvent DMSO) was about 130 mg/mL (≈ 290 mM). For the same compound, the solubility ([2]; solvent Glycerin) was 0.4 mg/mL (≈ 0.894 mM), the solubility ([2]; solvent Labrasol) was 11 mg/mL (≈ 24.6 mM) and the solubility ([2]; solvent Methanol) was 0.5 mg/mL (≈ 1.12 mM). For the same compound, the solubility ([2]; solvent NMP) was 300 to 360 mg/mL, the solubility ([2]; solvent NMP, listed as MP470 free base) was about 300 mg/mL (≈ 670 mM) and the solubility ([2]; solvent PEG400) was 14 mg/mL (≈ 31.3 mM). For the same compound, the solubility ([2]; solvent Phosal 50 PG) was 0.5 mg/mL (≈ 1.12 mM), the solubility ([2]; solvent Propylene glycol) was 0.4 mg/mL (≈ 0.894 mM) and the solubility ([2]; solvent Tween 20) was 8 mg/mL (≈ 17.9 mM). For the same compound, the solubility ([2]; triacetin, organic solvent or mixture, thermodynamic from solid, solvent Triacetin, read-out: Solubility) was 1 mg/mL (≈ 2.23 mM).
